Here are results for 14 substances from the OligoGym collection.

HELM strings list units from the 5' end as sugar, base in round brackets, then linkage (d deoxyribose, r ribose, m 2'-O-methyl, p phosphodiester). Strings are as the collection lists them, not checked against the first reports. ss, as = sense and antisense strand; [lna] = locked nucleic acid (LNA); [una] = unlocked nucleic acid; [s4r] = 4'-thioribose; [fl2r] = 2'-fluoro
Further: test system not given here.

The conditions of this data set: siRNA.
For the substance “RNA1{r(G)p.r(G)p.m(U)p.m(A)p.r(G)p.r(A)p.r(A)p.m(U)p.r(A)p.r(G)p.r(G)p.r(U)p.r(U)p.r(U)p.r(U)p.r(C)p.r(C)p.r(C)p.r(C)p.r(T)p.r(T)}|RNA2{r(G)p.r(G)p.r(G)p.r(G)p.r(A)p.r(A)p.r(A)p.r(A)p.r(C)p.r(C)p.m(U)p.r(A)p.r(U)p.r(U)p.r(C)p.m(U)p.r(A)p.r(C)p.r(C)p.r(T)p.r(T)}$$$RNA1{StrandType:ss}|RNA2{StrandType:as}$”, the target mRNA knockdown came out at 45%.

“RNA1{r(A)p.r(G)p.r(A)p.r(A)p.r(G)p.r(G)p.r(A)p.r(C)p.m(U)p.r(A)p.r(C)p.m(U)p.r(A)p.r(A)p.r(C)p.r(C)p.m(U)p.r(C)p.r(C)p.r(T)p.r(T)}|RNA2{r(G)p.r(G)p.r(A)p.r(G)p.r(G)p.m(U)p.m(U)p.r(A)p.r(G)p.m(U)p.r(A)p.r(G)p.m(U)p.r(C)p.r(C)p.m(U)p.m(U)p.r(C)p.m(U)p.r(T)p.r(T)}$$$RNA1{StrandType:ss}|RNA2{StrandType:as}$” yielded a target mRNA knockdown of 49%.

As to “RNA1{r(G)p.r(G)p.r(A)p.r(C)p.r(A)p.r(U)p.r(U)p.r(C)p.r(A)p.r(G)p.r(A)p.r(A)p.r(C)p.r(A)p.r(A)p.r(G)p.r(A)p.r(A)p.r(A)p.[una](U)p.[una](U)}|RNA2{r(U)p.r(U)p.r(U)p.r(C)p.r(U)p.[una](U)p.r(G)p.r(U)p.r(U)p.r(C)p.r(U)p.r(G)p.r(A)p.r(A)p.r(U)p.r(G)p.r(U)p.r(C)p.r(C)p.[una](U)p.[una](U)}$$$RNA1{StrandType:ss}|RNA2{StrandType:as}$”, the target mRNA knockdown amounted to 57%.

In the case of “RNA1{[fl2r](G)p.m(A)p.[fl2r](C)p.m(G)p.[fl2r](U)p.m(A)p.[fl2r](A)p.m(A)p.[fl2r](C)p.m(G)p.[fl2r](G)p.m(C)p.[fl2r](C)p.m(A)p.[fl2r](C)p.m(A)p.[fl2r](A)p.m(G)p.[fl2r](U)p.m(U)p.[fl2r](C)}|RNA2{r(A)p.r(C)p.[lna](T)p.r(U)p.r(G)p.[lna](T)p.r(G)p.r(G)p.r(C)p.r(C)p.r(G)p.r(U)p.r(U)p.[lna](T)p.r(A)p.r(C)p.r(G)p.[lna](T)p.r(C)p.[lna](G)p.[lna](C)}$$$RNA1{StrandType:ss}|RNA2{StrandType:as}$”, the target mRNA knockdown was determined as 1.5%.

In turn, “RNA1{r(C)p.r(U)p.r(C)p.r(U)p.r(C)p.r(C)p.r(U)p.[fl2r](A)p.r(C)p.r(C)p.r(U)p.r(U)p.r(C)p.r(U)p.r(C)p.r(C)p.r(U)p.r(C)p.r(U)p.r(T)p.r(T)}|RNA2{r(A)p.r(G)p.r(A)p.r(G)p.r(G)p.r(A)p.r(G)p.r(A)p.r(A)p.r(G)p.r(G)p.r(U)p.r(A)p.r(G)p.r(G)p.r(A)p.r(G)p.r(A)p.r(G)p.r(T)p.r(T)}$$$RNA1{StrandType:ss}|RNA2{StrandType:as}$” displayed a target mRNA knockdown of 78%.

In the case of “RNA1{r(C)p.r(G)p.r(G)p.r(G)p.r(U)p.r(A)p.r(C)p.r(G)p.r(A)p.r(G)p.r(C)p.r(C)p.r(G)p.r(G)p.r(A)p.r(A)p.r(C)p.r(C)p.r(U)p.r(T)p.r(T)}|RNA2{r(A)p.r(G)p.r(G)p.r(U)p.r(U)p.r(C)p.r(C)p.r(G)p.r(G)p.r(C)p.r(U)p.r(C)p.r(G)p.[fl2r](U)p.r(A)p.r(C)p.r(C)p.r(C)p.r(G)p.r(T)p.r(T)}$$$RNA1{StrandType:ss}|RNA2{StrandType:as}$”, the target mRNA knockdown was 69%.

The substance “RNA1{r(A)p.m(U)p.m(C)p.r(G)p.r(A)p.m(C)p.m(C)p.m(U)p.r(G)p.r(A)p.r(A)p.r(G)p.r(G)p.r(A)p.r(G)p.m(U)p.r(A)p.m(C)p.r(G)p.r(T)p.r(T)}|RNA2{m(C)p.r(G)p.m(U)p.r(A)p.m(C)p.m(U)p.m(C)p.m(C)p.m(U)p.m(U)p.m(C)p.r(A)p.r(G)p.r(G)p.m(U)p.m(C)p.r(G)p.r(A)p.m(U)p.r(T)p.r(T)}$$$RNA1{StrandType:ss}|RNA2{StrandType:as}$” yielded a target mRNA knockdown of 19%.

The substance “RNA1{r(C)p.r(U)p.m(C)p.r(A)p.r(A)p.r(A)p.r(U)p.m(C)p.r(A)p.r(A)p.r(G)p.r(G)p.r(C)p.r(C)p.r(G)p.r(G)p.r(A)p.r(G)p.r(U)p.r(T)p.r(T)}|RNA2{r(A)p.r(C)p.r(U)p.r(C)p.r(C)p.r(G)p.r(G)p.r(C)p.r(C)p.r(U)p.m(U)p.r(G)p.r(A)p.r(U)p.r(U)p.m(U)p.r(G)p.r(A)p.r(G)p.r(T)p.r(T)}$$$RNA1{StrandType:ss}|RNA2{StrandType:as}$” had a target mRNA knockdown of 82%.

Consider “RNA1{[lna](G)p.r(G)p.r(A)p.r(U)p.r(G)p.r(A)p.r(G)p.r(G)p.r(A)p.r(A)p.r(G)p.r(G)p.r(C)p.r(A)p.r(A)p.r(U)p.r(U)p.r(U)p.r(A)p.[lna](T)p.[lna](T)}|RNA2{r(U)p.r(A)p.r(A)p.r(A)p.r(U)p.r(U)p.r(G)p.r(C)p.r(C)p.r(U)p.r(U)p.r(C)p.r(C)p.r(U)p.r(C)p.r(A)p.r(U)p.r(C)p.r(C)p.[lna](T)p.[lna](T)}$$$RNA1{StrandType:ss}|RNA2{StrandType:as}$”, for which the target mRNA knockdown amounted to 50%.

As for “RNA1{r(A)p.m(U)p.r(A)p.r(C)p.r(U)p.m(U)p.m(G)p.r(G)p.r(C)p.r(G)p.r(G)p.r(G)p.m(C)p.r(U)p.r(C)p.r(U)p.r(U)p.r(U)p.r(C)p.r(T)p.r(T)}|RNA2{r(G)p.r(A)p.r(A)p.r(A)p.r(G)p.r(A)p.r(G)p.r(C)p.r(C)p.r(C)p.r(G)p.r(C)p.m(C)p.r(A)p.r(A)p.r(G)p.m(U)p.r(A)p.r(U)p.r(T)p.r(T)}$$$RNA1{StrandType:ss}|RNA2{StrandType:as}$”, the target mRNA knockdown was determined as 70%.

In turn, “RNA1{r(A)p.r(C)p.r(G)p.r(U)p.m(C)p.r(A)p.r(C)p.r(C)p.r(G)p.r(A)p.r(G)p.r(G)p.r(A)p.r(G)p.r(A)p.r(A)p.r(G)p.r(U)p.r(A)p.r(T)p.r(T)}|RNA2{m(U)p.r(A)p.r(C)p.r(U)p.r(U)p.r(C)p.r(U)p.r(C)p.r(C)p.r(U)p.r(C)p.r(G)p.r(G)p.m(U)p.r(G)p.r(A)p.r(C)p.r(G)p.r(U)p.r(T)p.r(T)}$$$RNA1{StrandType:ss}|RNA2{StrandType:as}$” showed a target mRNA knockdown of 80%.

Substance “RNA1{r(U)p.r(U)p.m(A)p.m(C)p.r(A)p.r(A)p.r(A)p.r(G)p.r(G)p.r(A)p.r(U)p.r(C)p.r(U)p.r(C)p.r(C)p.r(U)p.r(C)p.r(C)p.r(C)p.r(T)p.r(T)}|RNA2{r(G)p.r(G)p.r(G)p.r(A)p.r(G)p.r(G)p.r(A)p.r(G)p.r(A)p.r(U)p.r(C)p.r(C)p.r(U)p.r(U)p.r(U)p.r(G)p.m(U)p.r(A)p.r(A)p.r(T)p.r(T)}$$$RNA1{StrandType:ss}|RNA2{StrandType:as}$” had a target mRNA knockdown of 74%.

“RNA1{[s4r](C)p.[s4r](G)p.[s4r](U)p.[s4r](A)p.[s4r](C)p.[s4r](G)p.r(C)p.r(G)p.r(G)p.r(A)p.r(A)p.r(U)p.r(A)p.[s4r](C)p.[s4r](U)p.[s4r](U)p.[s4r](C)p.[s4r](G)p.[s4r](A)p.r(T)p.r(T)}|RNA2{r(G)p.r(C)p.r(G)p.r(A)p.r(A)p.r(G)p.r(U)p.r(A)p.r(U)p.r(U)p.r(C)p.r(C)p.r(G)p.r(C)p.r(G)p.r(U)p.r(A)p.[s4r](C)p.[s4r](G)p.r(T)p.r(T)}$$$RNA1{StrandType:ss}|RNA2{StrandType:as}$” gave a target mRNA knockdown of 74.2%.

For “RNA1{r(G)p.r(C)p.[fl2r](U)p.r(G)p.[fl2r](U)p.r(A)p.r(A)p.r(C)p.r(C)p.r(U)p.r(C)p.r(G)p.r(G)p.r(A)p.r(G)p.r(A)p.r(G)p.r(U)p.r(U)p.r(T)p.r(T)}|RNA2{r(A)p.r(A)p.r(C)p.r(U)p.r(C)p.r(U)p.r(C)p.r(C)p.r(G)p.r(A)p.r(G)p.r(G)p.r(U)p.[fl2r](U)p.r(A)p.[fl2r](C)p.r(A)p.r(G)p.r(C)p.r(T)p.r(T)}$$$RNA1{StrandType:ss}|RNA2{StrandType:as}$”, the target mRNA knockdown was determined as 62%.
